Drawing on PubChem BioAssay AID1259407 (Chemical Carcinogenesis Research Information System (CCRIS), 2018), this text covers mutagenic call for 2 compounds.

This data set relates to CCRIS mutagenicity, Ames/micronucleus/aberration tests. Briefly: CCRIS mutagenicity studies.
[1] abbreviates: Test System: AMES SALMONELLA TYPHIMURIUM, Strain/Indicator: TA98, Metabolic Activation: NONE, Method: PREINCUBATION
Setting [2] is: Test System: AMES SALMONELLA TYPHIMURIUM, Strain/Indicator: TA100, Metabolic Activation: NONE, Method: PREINCUBATION

The source made the active and inactive calls. The rule behind the calls is not given here.

As to `Nc1nc(-c2ccc([N+](=O)[O-])cc2)nc2c1ncn2[C@@H]1O[C@H](CO)[C@@H](O)[C@H]1O`, the mutagenic call (Test System: AMES SALMONELLA TYPHIMURIUM, Strain/Indicator: TA98(1,8-DNP), Metabolic Activation: NONE, Method: PREINCUBATION) was “active; positive”; the mutagenic call (Test System: AMES SALMONELLA TYPHIMURIUM, Strain/Indicator: TA98(NR), Metabolic Activation: NONE, Method: PREINCUBATION) is “active; positive”; the mutagenic call (Test System: AMES SALMONELLA TYPHIMURIUM, Strain/Indicator: TA98(NR), Metabolic Activation: RAT, LIVER, S-9, PCB, Method: PREINCUBATION) is “inactive; negative”; the mutagenic call under setting [1] was “active; positive”; the mutagenic call (Test System: AMES SALMONELLA TYPHIMURIUM, Strain/Indicator: TA98, Metabolic Activation: RAT, LIVER, S-9, PCB, Method: PREINCUBATION) was “active; positive”; the mutagenic call (Test System: AMES SALMONELLA TYPHIMURIUM, Strain/Indicator: TA100(1,8-DNP), Metabolic Activation: RAT, LIVER, S-9, PCB, Method: PREINCUBATION) is “inactive; negative”. The mutagenic call (Test System: AMES SALMONELLA TYPHIMURIUM, Strain/Indicator: TA100(NR), Metabolic Activation: RAT, LIVER, S-9, PCB, Method: PREINCUBATION) is “inactive; negative”; the mutagenic call under setting [2] was “active; positive”; the mutagenic call (Test System: AMES SALMONELLA TYPHIMURIUM, Strain/Indicator: TA100, Metabolic Activation: RAT, LIVER, S-9, PCB, Method: PREINCUBATION) was “active; positive”; the mutagenic call (Test System: AMES SALMONELLA TYPHIMURIUM, Strain/Indicator: YG1020, Metabolic Activation: NONE, Method: PREINCUBATION) was “active; positive”; the mutagenic call (Test System: AMES SALMONELLA TYPHIMURIUM, Strain/Indicator: YG1020, Metabolic Activation: RAT, LIVER, S-9, PCB, Method: PREINCUBATION) is “active; positive”; the mutagenic call (Test System: AMES SALMONELLA TYPHIMURIUM, Strain/Indicator: YG1021, Metabolic Activation: NONE, Method: PREINCUBATION) is “active; positive”. Moreover, the mutagenic call is “active; positive” (Test System: AMES SALMONELLA TYPHIMURIUM, Strain/Indicator: YG1021, Metabolic Activation: RAT, LIVER, S-9, PCB, Method: PREINCUBATION); “active; positive” (Test System: AMES SALMONELLA TYPHIMURIUM, Strain/Indicator: YG1024, Metabolic Activation: NONE, Method: PREINCUBATION); “active; positive” (Test System: AMES SALMONELLA TYPHIMURIUM, Strain/Indicator: YG1024, Metabolic Activation: RAT, LIVER, S-9, PCB, Method: PREINCUBATION); “active; positive” (Test System: AMES SALMONELLA TYPHIMURIUM, Strain/Indicator: YG1025, Metabolic Activation: NONE, Method: PREINCUBATION); “active; positive” (Test System: AMES SALMONELLA TYPHIMURIUM, Strain/Indicator: YG1025, Metabolic Activation: RAT, LIVER, S-9, PCB, Method: PREINCUBATION); “active; positive” (Test System: AMES SALMONELLA TYPHIMURIUM, Strain/Indicator: YG1026, Metabolic Activation: NONE, Method: PREINCUBATION). Besides, the mutagenic call by setting is: (Test System: AMES SALMONELLA TYPHIMURIUM, Strain/Indicator: YG1026, Metabolic Activation: RAT, LIVER, S-9, PCB, Method: PREINCUBATION) “active; positive”; (Test System: AMES SALMONELLA TYPHIMURIUM, Strain/Indicator: YG1029, Metabolic Activation: NONE, Method: PREINCUBATION) “active; positive”; (Test System: AMES SALMONELLA TYPHIMURIUM, Strain/Indicator: YG1029, Metabolic Activation: RAT, LIVER, S-9, PCB, Method: PREINCUBATION) “active; positive”.

Turning to `O=C(O)c1ccc(O)cc1`, the mutagenic call under setting [1] is “inactive; negative”; the mutagenic call (Test System: AMES SALMONELLA TYPHIMURIUM, Strain/Indicator: TA98, Metabolic Activation: NONE, Method: STANDARD PLATE) was “inactive; negative”; the mutagenic call (Test System: AMES SALMONELLA TYPHIMURIUM, Strain/Indicator: TA98, Metabolic Activation: RAT LIVER S-9, PHENOBARBITAL AND BETA-NAPHTHOFLAVONE, Method: PREINCUBATION) was “inactive; negative”; the mutagenic call under setting [2] was “inactive; negative”; the mutagenic call (Test System: AMES SALMONELLA TYPHIMURIUM, Strain/Indicator: TA100, Metabolic Activation: NONE, Method: STANDARD PLATE) is “inactive; negative”; the mutagenic call (Test System: AMES SALMONELLA TYPHIMURIUM, Strain/Indicator: TA100, Metabolic Activation: RAT LIVER S-9, PHENOBARBITAL AND BETA-NAPHTHOFLAVONE, Method: PREINCUBATION) is “inactive; negative”. Moreover, the mutagenic call was “inactive; negative” (Test System: AMES SALMONELLA TYPHIMURIUM, Strain/Indicator: TA102, Metabolic Activation: NONE, Method: PREINCUBATION); “inactive; negative” (Test System: AMES SALMONELLA TYPHIMURIUM, Strain/Indicator: TA102, Metabolic Activation: RAT LIVER S-9, PHENOBARBITAL AND BETA-NAPHTHOFLAVONE, Method: PREINCUBATION); “inactive; negative” (Test System: AMES SALMONELLA TYPHIMURIUM, Strain/Indicator: TA104, Metabolic Activation: NONE, Method: PREINCUBATION); “inactive; negative” (Test System: AMES SALMONELLA TYPHIMURIUM, Strain/Indicator: TA104, Metabolic Activation: RAT LIVER S-9, PHENOBARBITAL AND BETA-NAPHTHOFLAVONE, Method: PREINCUBATION); “inactive; negative” (Test System: AMES SALMONELLA TYPHIMURIUM, Strain/Indicator: TA1535, Metabolic Activation: NONE, Method: PREINCUBATION); “inactive; negative” (Test System: AMES SALMONELLA TYPHIMURIUM, Strain/Indicator: TA1535, Metabolic Activation: RAT LIVER S-9, PHENOBARBITAL AND BETA-NAPHTHOFLAVONE, Method: PREINCUBATION). The mutagenic call is, setting by setting: (Test System: AMES SALMONELLA TYPHIMURIUM, Strain/Indicator: TA1537, Metabolic Activation: NONE, Method: PREINCUBATION) “inactive; negative”; (Test System: AMES SALMONELLA TYPHIMURIUM, Strain/Indicator: TA1537, Metabolic Activation: RAT LIVER S-9, PHENOBARBITAL AND BETA-NAPHTHOFLAVONE, Method: PREINCUBATION) “inactive; negative”; (Test System: E. COLI, Strain/Indicator: CM561 LEXA, Metabolic Activation: NONE, Method: STANDARD PLATE) “inactive; negative”; (Test System: E. COLI, Strain/Indicator: CM611 UVRA/LEXA, Metabolic Activation: NONE, Method: STANDARD PLATE) “inactive; negative”; (Test System: E. COLI, Strain/Indicator: WP2 UVRA, Metabolic Activation: NONE, Method: STANDARD PLATE) “inactive; negative”; (Test System: E.COLI, Strain/Indicator: WP2UVRA/PKM101, Metabolic Activation: NONE, Method: PREINCUBATION) “inactive; negative”. Also, the mutagenic call (Test System: E.COLI, Strain/Indicator: WP2UVRA/PKM101, Metabolic Activation: RAT LIVER S-9, PHENOBARBITAL AND BETA-NAPHTHOFLAVONE, Method: PREINCUBATION) is “inactive; negative”; the mutagenic call (Test System: E.COLI, Strain/Indicator: WP2UVRA, Metabolic Activation: NONE, Method: PREINCUBATION) was “inactive; negative”; the mutagenic call (Test System: E.COLI, Strain/Indicator: WP2UVRA, Metabolic Activation: RAT LIVER S-9, PHENOBARBITAL AND BETA-NAPHTHOFLAVONE, Method: PREINCUBATION) is “inactive; negative”.
